From ChEMBL document CHEMBL5537157, “Selective Antitumor Effect and Lower Toxicity of Mitochondrion-Targeting Derivatization of Triptolide” (J Med Chem, 2024)
Calls of active or inactive are those of the source. The rule behind the calls is not given here.

Assays:
[1] = Toxicity in zebrafish embryo assessed as degree of periocular edema at 0.5 uM pretreated with compound followed by replacement of growth liquid by microscopy (reference value: 0.00 %); parameters: species or system Danio rerio; conditions: in vivo
[2] = Toxicity in zebrafish embryo assessed as degree of periocular edema at 2 uM pretreated with compound followed by replacement of growth liquid by microscopy (reference value: 0.00 %); parameters: species or system Danio rerio; conditions: in vivo
[3] = Toxicity in zebrafish embryo assessed as liver function at 0.25 uM with replacement of new growth solution daily by fluorescence microscopy (reference value: 100 +/- 8.89 %); format: tissue-based, Danio rerio; conditions: in vivo
[4] = Toxicity in zebrafish embryo assessed as liver development at 0.25 uM with replacement of new growth solution daily by fluorescence microscopy (reference value: 100.00 +/- 8.64 %); format: tissue-based, Danio rerio; conditions: in vivo
[5] = Drug accumulation in mitochondria of human NCI-H1975 cells at 10 uM incubated for 7 hrs by HPLC analysis; format: ADME; conditions: nci-h1975, 7 h
[6] = Developmental toxicity in zebrafish AB zygotes assessed as animal mortality at 4 uM treated at 6 hrs post-fertilization measured at 24 to 72 hrs post-fertilization; parameters: species or system Danio rerio; conditions: in vivo, time 18-66 hrs
[7] = Toxicity in zebrafish embryo assessed as death rate at 1 uM pretreated with compound followed by replacement of growth liquid by microscopy (reference value: 2.22 +/- 3.84 %); parameters: species or system Danio rerio; conditions: in vivo, read-out: Activity
[8] = Toxicity in zebrafish embryo assessed as liver function at 0.5 uM with replacement of new growth solution daily by fluorescence microscopy (reference value: 100 +/- 8.89 %); format: tissue-based, Danio rerio; conditions: in vivo
PC-3 = assay: Cytotoxicity against human PC-3 cells assessed as cell growth inhibition at 4.5 to 10 nM incubated for 48 hrs by MTT assay relative to control; format: functional; conditions: dose 4.5-10 nM
NCI-H1975 [9] = assay: Induction of apoptosis in human NCI-H1975 cells at 50 to 1600 nM incubated for 24 hrs by Annexin V-FITC/PI staining based flow cytometry; format: functional, cell-based; conditions: dose 50-1600 nM
[10] = Toxicity in zebrafish embryo assessed as damage effect in liver function at 0.25 uM with replacement of new growth solution daily by fluorescence microscopy relative to control; format: tissue-based, Danio rerio; conditions: in vivo
[11] = Toxicity in zebrafish embryo assessed as damage effect in liver function at 0.5 uM with replacement of new growth solution daily by fluorescence microscopy relative to control; format: tissue-based, Danio rerio; conditions: in vivo
[12] = Toxicity in zebrafish embryo assessed as degree of periocular edema at 1 uM pretreated with compound followed by replacement of growth liquid by microscopy (reference value: 0.00 %); parameters: species or system Danio rerio; conditions: in vivo
NCI-H1975 [13] = assay: Inhibition of cell proliferation in human NCI-H1975 cells xenografted in zebrafish at 1 uM measured after 48 hrs by confocal microscopy; format: functional, cell-based
[14] = Renal toxicity in zebrafish assessed as decrease in nephrin expression at 2 uM treated for 48 hrs by RT-qPCR analysis; parameters: species or system Danio rerio; conditions: in vivo
[15] = Toxicity in zebrafish embryo assessed as liver development at 0.5 uM with replacement of new growth solution daily by fluorescence microscopy (reference value: 100.00 +/- 8.64 %); format: tissue-based, Danio rerio; conditions: in vivo
[16] = Toxicity in zebrafish at 2 uM; parameters: species or system Danio rerio; conditions: in vivo
[17] = Toxicity in zebrafish embryo assessed as damage effect in liver development at 0.25 uM with replacement of new growth solution daily by fluorescence microscopy relative to control; parameters: species or system Danio rerio; conditions: in vivo
[18] = Renal toxicity in zebrafish assessed as increase in TNF-alpha expression at 0.5 to 2 uM treated for 48 hrs by RT-qPCR analysis; parameters: species or system Danio rerio; conditions: in vivo, dose 0.5-2 µM
[19] = Toxicity in zebrafish embryo assessed as death rate at 0.5 uM pretreated with compound followed by replacement of growth liquid by microscopy (reference value: 0.00 %); parameters: species or system Danio rerio; conditions: in vivo, read-out: Activity
[20] = Toxicity in zebrafish embryo assessed as death rate at 4 uM pretreated with compound followed by replacement of growth liquid by microscopy (reference value: 2.22 +/- 3.84 %); parameters: species or system Danio rerio; conditions: in vivo, read-out: Activity
[21] = Developmental toxicity in zebrafish AB zygotes assessed as decrease in body length at 0.25 to 4 uM treated at 6 hrs post-fertilization measured at 24 to 72 hrs post-fertilization; parameters: species or system Danio rerio; conditions: in vivo, dose lower 0.25 µM, time lower 18 hrs, dose upper 4 µM, time upper 66 hrs
[22] = Toxicity in zebrafish embryo assessed as death rate at 2 uM pretreated with compound followed by replacement of growth liquid by microscopy (reference value: 2.22 +/- 3.84 %); parameters: species or system Danio rerio; conditions: in vivo, read-out: Activity
[23] = Toxicity in zebrafish embryo assessed as damage effect in liver development at 0.5 uM with replacement of new growth solution daily by fluorescence microscopy relative to control; format: tissue-based, Danio rerio; conditions: in vivo
[24] = Developmental toxicity in zebrafish AB zygotes assessed as lethal effect at 2 to 4 uM treated at 6 hrs post-fertilization measured at 72 hrs post-fertilization; parameters: species or system Danio rerio; conditions: in vivo, 66 h, dose 2-4 µM
NCI-H1975 [25] = assay: Inhibition of cell migration in human NCI-H1975 cells at 2.5 to 5 nM incubated upto 72 hrs by scratch healing assay; format: functional, cell-based; conditions: dose 2.5-5 nM
[26] = Developmental toxicity in zebrafish AB zygotes assessed as decrease in hatching rate at 2 to 4 uM treated at 6 hrs post-fertilization measured at 24 to 72 hrs post-fertilization; parameters: species or system Danio rerio; conditions: in vivo, dose lower 2 µM, time lower 18 hrs, dose upper 4 µM, time upper 66 hrs
[27] = Toxicity in zebrafish embryo assessed as liver development at 2 uM with replacement of new growth solution daily by fluorescence microscopy (reference value: 100.00 +/- 8.64 %); format: tissue-based, Danio rerio; conditions: in vivo
[28] = Renal toxicity in fluorescent transgenic zebrafish at 0.5 to 1 uM treated for 48 hrs by fluorescence microscopy; parameters: species or system Danio rerio; conditions: in vivo, dose 0.5-1 µM
NCI-H1975 [29] = assay: Inhibition of cell proliferation in human NCI-H1975 cells xenografted in zebrafish at 1 to 2 uM measured after 48 hrs by confocal microscopy; format: functional, cell-based; conditions: dose 1-2 µM
A549 = assay: Cytotoxicity against human A549 cells assessed as inhibition of cell viability incubated for 48 hrs by MTT assay; format: functional, cell-based; conditions: A549, 48 h
[30] = Toxicity in zebrafish embryo assessed as damage effect in liver function at 2 uM with replacement of new growth solution daily by fluorescence microscopy relative to control; parameters: species or system Danio rerio; conditions: in vivo
NCI-H1975 [31] = assay: Induction of early apoptosis in human NCI-H1975 cells at 50 to 400 nM incubated for 24 hrs by Annexin V-FITC/PI staining based flow cytometry; format: functional, cell-based; conditions: dose 50-400 nM
[32] = Toxicity in zebrafish embryo assessed as degree of periocular edema at 4 uM pretreated with compound followed by replacement of growth liquid by microscopy (reference value: 0.00 %); parameters: species or system Danio rerio; conditions: in vivo, 24 h
NCI-H1975 [33] = assay: Induction of late apoptosis in human NCI-H1975 cells at 50 to 400 nM incubated for 24 hrs by Annexin V-FITC/PI staining based flow cytometry; format: functional, cell-based; conditions: dose 50-400 nM
[34] = Toxicity in zebrafish embryo assessed as damage effect in liver function at 1 uM with replacement of new growth solution daily by fluorescence microscopy relative to control; parameters: species or system Danio rerio; conditions: in vivo
[35] = Toxicity in zebrafish embryo assessed as damage effect in liver development at 2 uM with replacement of new growth solution daily by fluorescence microscopy relative to control; format: tissue-based, Danio rerio; conditions: in vivo

SMILES: CC(C)[C@]12O[C@H]1[C@@H]1O[C@@]13[C@@]1(C)CCC4=C(COC4=O)[C@@H]1C[C@@H]1O[C@@]13C2=O [TRIPTONIDE]
- Activity [1]: 6.67%
- Activity [2]: 48.89%
- Activity [3]: 50.55%
- Activity [4]: 87.8%
- Drug uptake [5]: Active
- Activity [6]: Toxic
- mortality at 1 µM [7]: 11.1%
- Activity [8]: 23.09%
- Imax (PC-3): ~60%
- Activity (NCI-H1975 [9]): Active
- Activity [10]: 49.45%
- Activity [11]: 76.91%
- Activity [12]: 13.33%
- inhibition (NCI-H1975 [13]): Active
- Activity [14]: Toxic
- Activity [15]: 45.38%
- Activity [16]: Toxic
- Activity [17]: 12.2%
- Activity [18]: Toxic
- mortality at 24 h, 0.5 µM [19]: 2.22%
- mortality at 4 µM [20]: 22.2%
- Activity [21]: Toxic
- mortality at 2 µM [22]: 13.3%
- Activity [23]: 54.62%
- Activity [24]: Toxic
- inhibition (NCI-H1975 [25]): Active

SMILES: CC(C)[C@]12O[C@H]1[C@@H]1O[C@]13[C@]1(O[C@H]1C[C@H]1C4=C(CC[C@@]13C)C(=O)OC4)[C@@H]2OC(=O)CCCCCCCC[n+]1ccc(/C=C/c2c[nH]c3ccccc23)cc1.[Br-]
- Activity [1]: 2.22%
- Activity [2]: 33.33%
- Activity [3]: 61.46%
- Activity [4]: 95.17%
- Drug uptake [5]: Active
- Activity [6]: Non-Toxic
- Activity [26]: Toxic
- mortality at 1 µM [7]: 6.67%
- Activity [8]: 51.53%
- Activity [27]: 41.79%
- Activity [28]: Non-Toxic
- Activity [10]: 38.54%
- inhibition (NCI-H1975 [29]): Active
- Activity [11]: 48.47%
- IC50 (A549): 46.1 µM
- Activity [12]: 13.33%
- Activity [30]: 79.96%
- Activity (NCI-H1975 [31]): Active
- Activity [15]: 85%
- Activity [16]: Non-Toxic
- Activity [32]: 100%
- Activity [17]: 4.83%
- mortality at 24 h, 0.5 µM [19]: 2.22%
- Activity (NCI-H1975 [33]): Active
- mortality at 4 µM [20]: 11.1%
- Activity [34]: 72.82%
- mortality at 2 µM [22]: 6.67%
- Activity [23]: 15.05%
- Activity [35]: 58.21%
- inhibition (NCI-H1975 [25]): Active
